{"source": "paper PMC10869804", "about": "(Scientific Reports, 2024)", "key": {"[1]": {"biological_target": "fluorescent designed Orf63 binding peptide FAM-Ahx-…", "experiment": "fluorescence polarisation; 10 nM fluorescent peptide with varying concentrations of Orf63 (per protomer) in PBS pH 7.4; 1:1 binding function, each peptide assumed to bind each protomer independently"}, "[2]": {"biological_target": "6xHis-Flag affinity tagged Orf63 from lambda bacteriophage (phage λ)", "experiment": "SEC-MALS; 2 mg/mL Orf63; 10 mM Tris-HCl, 0.15 M NaCl, pH 8.0; SEC300A column at 0.2 mL/min"}, "15N-Orf63 dimer": {"test_system": "15N-Orf63 dimer", "experiment": "15N-HSQC mixing experiment with ubiquitin fusion proteins", "format": "binding, lambda bacteriophage", "conditions": "2:1 ubiquitin fusion to 15N-Orf63 dimer, 5 mM Tris-Cl pH 7.4, 50 mM NaCl", "method": "Amino acid substitution mutants were prepared using the Q5 mutagenesis method (New England Biolabs) with oligonucleotides from IDT. […] At an A600 of 0.8, expression was induced by the addition of 1 mM isopropyl thiogalactoside (IPTG), and the culture was grown for 3 h further before harvesting. Detailed information regarding the purification of this fragment by nickel affinity and gel filtration chromatography has been published previously. For NMR spectroscopy, a uniformly ^13C, ^15N isotopically labelled protein sample was made from a 1 L culture containing M9 minimal media salts supplemented with 3 g of ^13C-glucose (Sigma-Aldrich), 1 g of ^15N ammonium chloride (Sigma-Aldrich) and 1 g of ^13C,^15N Celtone algal extract (Cambridge Isotopes). Natural abundance Orf63 proteins were prepared using a similar protocol except cultures were grown in LB media. Protein concentrations were estimated by UV absorbance at 280 nm. […]\ndesign ubiquitin […]\ncontrol ubiquitin […]\n(a) A mixing experiment was performed with 15N-Orf63 and a Ubiquitin-fusion protein with a C-terminal extension corresponding to a designed peptide, or an unrelated peptide control. The mixing ratio was 2:1 (Ubiquitin fusion […]\n(b,c) 15N-HSQC spectra of 15N-Orf63\n(blue) and 15N-Orf63 mixed with a Ubiquitin fusion protein. Asterisks denote peaks that were […]"}, "Orf63": {"test_system": "Orf63", "experiment": "1H,15N-HSQC comparison of Orf63-linker-peptide hybrid protein with Orf63", "format": "binding, lambda bacteriophage", "conditions": "0.15 mM 15N-labeled 6xHis-Flag-Orf63-linker-peptide vs 0.15 mM 15N-labeled 6xHis-Flag-Orf63"}, "15N-Orf63": {"test_system": "15N-Orf63", "experiment": "15N-HSQC titration / chemical shift perturbation (CSP) mapping of peptide binding", "parameters": "species or system lambda bacteriophage", "method": "(a) ^1H-^15N chemical shift perturbations (CSPs) measured between ^15N-Orf63 free, and in complex with a unlabelled designed peptide. Blue shading highlights a CSP > 0.05.\nA titration was performed by acquiring a series of ^15N-HSQC spectra of 0.48 mM ^15N-Orf63 (monomeric concentration) with 0.12, 0.24, 0.36, 0.48, and 0.60 mM peptide ([…]) manufactured by GenScript (Piscataway, NJ) in phosphate buffered saline pH 7.4. Assignments of peptide-bound ^15N-Orf63, particularly through two helical regions, were made by walking through HN-HN correlations in a 3D 15N-NOESY spectrum.\nMost resonances during the […]\nthroughout the two a-helical regions, was confirmed by an HN-HN walk through a 3D 15N-NOESY spectrum. Unassigned resonances N-terminal helix a1 and C-terminal to helix a2 are likely unstructured due to the absence of i,i+3, i,i+4, and HN-HN NOEs. The residue numbering follows the PDB file 8DSB and the expressed protein with N-terminal affinity […]\n(1 picture or pasted object on this page, not shown here)"}, "[3]": {"test_system": "lysogenic or lytic developmental outcome of phage λ infection", "conditions": "period to new viral progeny, bacterial survivors, conversion to lysogens; ref [8],[11]; cited from earlier work"}}, "data": [{"molecule": "6xHis-Flag affinity tagged Orf63 from lambda bacteriophage (natural protein)", "values": [{"measurement": "Kd", "setting": "[1]", "result": 3.1, "unit": "µM"}, {"measurement": "stoichiometry N", "setting": "[2]", "result": 2}]}, {"molecule": "DTKELILAIARKVKEMIKNS [Ubiquitin fusion protein]", "values": [{"measurement": "line broadening / chemical shift changes", "setting": "15N-Orf63 dimer", "result": "significant line broadening suggesting binding was occurring"}, {"measurement": "line broadening / chemical shift changes", "setting": "15N-Orf63 dimer; listed as design", "result": "severely line broadened"}]}, {"molecule": "DTKELILAIARKVKEMIKNS [hybrid protein]", "values": [{"measurement": "spectrum of hybrid protein relative to Orf63", "setting": "Orf63", "result": "resembled Orf63 with additional peaks from the helical ligand along with a set of chemical shift changes"}]}, {"molecule": "DTKELILAIARKVKEMIKNS [synthetic peptide]", "values": [{"measurement": "saturation of the complex", "setting": "15N-Orf63; 0.48 mM 15N-Orf63 (monomeric), 0.12-0.60 mM peptide, PBS pH 7.4, between 1:1 and 1.2:1 peptide:protomer ratio", "result": "the complex was deemed to be saturated with peptide ligand"}, {"measurement": "exchange regime of CSPs, majority of resonances", "setting": "15N-Orf63; 0.48 mM 15N-Orf63 (monomeric), titrated with peptide, PBS pH 7.4", "result": "fast exchange"}, {"measurement": "exchange regime of CSPs, minority of resonances in helix α2 from S45 onwards", "setting": "15N-Orf63; 0.48 mM 15N-Orf63 (monomeric), titrated with peptide, PBS pH 7.4, largest measured CSPs", "result": "slow exchange"}, {"measurement": "observed interaction surface (CSPs mapped on the structure)", "setting": "15N-Orf63; 0.48 mM 15N-Orf63, PBS pH 7.4", "result": "consistent with the predicted interaction surface of the model"}]}, {"molecule": "MAIAHAATEYVFADFVLK [reference compound]", "values": [{"measurement": "line broadening / chemical shift changes", "setting": "15N-Orf63 dimer", "result": "no chemical shift or line broadening changes"}]}, {"molecule": "Ea22: protein encoded between the exo and xis genes of phage λ (protein, UniProt P03756 1-182, looked up) Protein ea22: MSEINSQALREAAEQAMHDDWGFDADLFHELVTPSIVLELLDERERNQQYIKRRDQENEDIALTVGKLRVELETAKSKLNEQREYYEGVISDGSKRIAKLESNEVREDGNQFLVVRHPGKTPVIKHCTGDLEEFLRQLIEQDPLVTIDIITHRYYGVGGQWVQDAGEYLHMMSDAGIRIKGE", "values": [{"measurement": "lytic/lysogenic tendency", "setting": "[3]", "result": "pro-lysogenic"}]}]}
